{"source": "patent US11660319B2", "about": "“Compositions comprising bacterial strains” (priority 2017, dated 2023)", "key": {"[1]": {"system": "HT29-mtx epithelial, mucin-producing cell monolayers", "experiment": "mRNA expression of tight junction proteins in HT29-mtx (qRT-PCR)", "type": "cell-based", "conditions": "2 h incubation", "method": "Total RNA was extracted using the RNeasy mini kit (Qiagen, Manchester, JUK) according to the manufacturer's instructions, and the RNA concentration determined by absorbance at 260/280 nm using a spectrophotometer (nano-Drop ND-1000; Thermo Scientific, Wilmington, Del.). For mRNA expression analysis, cDNA was prepared from total RNA using the High-Capacity cDNA reverse transcription kit (Applied Biosystems, UK) according to the manufacturer's instructions. The reverse transcription reactions were performed in a Thermo cycler (Biometra, Germany) at 25° C. for 10 min, 37° C. for 120 min, and 85° C. for 5 min, hold on at 4° C. Resulting cDNA was amplified in duplicates by the SYBR-Green PCR assay, and products were detected on QuantStudio 6 flex real-time PCR machine (Applied Biosystems, UK) using a standardised profile (initial denaturation of 95° C. for 10 minutes, followed by 40 cycles of 15 seconds of denaturation at 95° C. and 60 seconds of annealing/extension at 60/65° C., depending on the primers. A dissociation stage was added after the 40 cycles to generate a melting curve. Analysis was performed using the Applied Biosystems QuantStudio Real-Time PCR Software v1.2. The primer sequences for Actin, Villin, Occludin TJP1 and TJP2 are provided in the sequence listing."}, "histone deacetylase": {"system": "histone deacetylase", "experiment": "Histone deacetylase activity in HT-29 cells (fluorometric kit)", "type": "cell-based", "conditions": "10% cell free supernatant, 48 hours", "method": "Cell free supernatants of stationary phase bacterial cultures were isolated by centrifugation and filtering in a 0.22 uM filter. HT-29 cells were used 3 days' post confluence and stepped down in 1 mL DTS 24 hours prior to commencement of the experiment. The HT-29 cells were challenged with 10% cell free supernatant diluted in DTS and this was left to incubate for 48 hours. […] extraction kit and samples were snap frozen prior to HDAC activity measurement. HDAC activity kit was assessed fluorometrically using the Sigma Aldrich (UK) kit."}, "[2]": {"system": "differentiated SHSY-5Y neuroblastoma cells", "experiment": "ROS generated by TBHP (DCFDA fluorescence)", "type": "cell-based, human", "conditions": "100 uM TBHP, 10% bacteria supernatant, 2 h", "method": "SHSY-5Y cells were plated in black flat bottom 96 well plate at density of 5000 cells/well and placed in the CO2 incubator. After 24 h, media were replaced with differentiation medium (growth medium containing 1% FBS) and 10 μM retinoic acid. Differentiation medium was replaced every other day. On Day 10 the differentiation medium was removed and cells were washed with pre-warmed PBS and stained with 10 uM DCFDA molecular probe for 20 mins in growth medium containing 1% FBS. Then cells were washed with pre-warmed PBS again and treated with 100 uM TBHP in the presence or absence of 10% bacteria supernatant for 2 h. Fluorescence intensity was measured using TECAN plate reader at Ex/Em 485/530 nm."}, "[3]": {"system": "differentiated neuroblasoma cells", "experiment": "BDNF secretion in SHSY-5Y cells", "type": "cell-based, human", "conditions": "in combination with retinoic acid (10 μM, differentiation); 50 μl bacteria SN", "method": "SH-SY5-SY were plated in 24 wells plate at density of 60,000 cells/well and placed in the incubator. After 24 h, media were replaced with differentiation medium (growth medium containing 1% FBS) and 10 μM retinoic acid. Differentiation medium was replaced every other day and cells were used on day 10 of differentiation. For the treatment differentiation medium was removed and replaced with 450 ul of full growth media and 50 μl of bacteria SN was added to the treated wells or YCFA+ was added as negative Control."}, "BALBc mice": {"system": "BALBc mice", "experiment": "Ex vivo gene expression in colon and ileum of mice fed with bacteria", "set-up": "species or system mouse", "method": "Animals were allowed to habituate to their holding room for one week after arrival into the animal unit. They receive oral gavage (200 μL dose) of live biotherapeutics at a dose of 1×10^9 CFU for 6 consecutive days between 15:00 and 17:00. On day 7, the animals are decapitated, and tissues are harvested for experimentation. The in vitro results were compared with data from the ex vivo parallel analysis on the gut of mice fed with […] expression of TJP2 and occludin was quantified in the colon and ileum. […] Total RNA was extracted using the mirVanaTM miRNA Isolation kit (Ambion/Llife technologies, Paisley, UK) and DNase treated (Turbo DNA-free, Ambion/life technologies) according to the manufacturers recommendations. RNA was quantified using NanoDropTM spectrophotometer (Thermo Fisher Scientific Inc., Wilmington, Del., USA) according to the manufacturer's instructions. RNA quality was assessed using the Agilent Bioanalyzer (Agilent, Stockport, UK) according to the manufacturer's procedure and an RNA integrity number (RIN) was calculated. […] RNA was reverse transcribed to cDNA using the Applied Biosystems High Capacity cDNA kit (Applied Biosystems, Warrington, UK) according to manufacturer's instructions. Briefly, Multiscribe Reverse Transcriptase (50 U/μL) (1)(2)(1)(10) was added as part of RT master mix, incubated for 25° C. for 10 min, 37° C. for 2 h, 85° C. for 5 min and stored at 4° C. Quantitative PCR was carried out using probes (6 carboxy fluorescein-FAM) designed by Applied Biosystems to mouse specific targeted genes, while using β-actin as an endogenous control. Amplification reactions contained 1 μl cDNA, 5 μl of the 2× PCR Master mix (Roche), 900 nM of each primer and were brought to a total of 10 μl by the addition of RNase-free water. All reactions were performed in triplicate using 96-well plates on the LightCycler®480 System. Thermal cycling conditions were as recommended by the manufacturer (Roche) for 55 cycles. To check for amplicon contamination, each run contained no template controls in triplicate for each probe used. Cycle threshold (Ct) values were recorded. Data was normalized using β-actin and transformed using the 2-ΔΔCT method and presented as a fold change vs. control group."}}}
{"substance": "Megasphaera massiliensis [MRx0029]", "values": [{"measurement": "Occludin mRNA expression", "setting": "[1]", "value": "enhanced"}, {"measurement": "Tight Junction Protein 1 (TJP1) mRNA expression", "setting": "[1]", "value": "enhanced"}, {"measurement": "Tight Junction Protein 2 (TJP2) mRNA expression", "setting": "[1]", "value": "enhanced"}, {"measurement": "Vlillin mRNA expression", "setting": "[1]", "value": "enhanced"}, {"measurement": "levels of histone deacetylase activity", "setting": "histone deacetylase", "value": "reduce"}, {"measurement": "ROS production", "setting": "[2]", "value": "inhibit"}, {"measurement": "secretion of BDNF", "setting": "[3]", "value": "increases"}, {"measurement": "expression tryptophan hydroxylase-1 (Tph1)", "setting": "BALBc mice; colon", "value": "significantly increase"}, {"measurement": "TJP1 expression in colon", "setting": "BALBc mice; colon region of the murine intestine", "value": "significantly up-regulate"}, {"measurement": "Occludin expression in colon", "setting": "BALBc mice; colon region of the murine intestine, p=0.073", "value": "significantly up-regulate"}]}
